Consider three molecules from patent US20250354930A1, “IONIC LIQUID ENCAPSULATION OF NIR DYES FOR THE IMPROVEMENT OF BLOODSTAIN DETECTION” (University of Mississippi, priority 2024, published 2025).

The structures appear in SMILES notation. In brackets after ≈: the same amount, converted by molar mass. Several values for one entry are separate records, joined by “and”; a condition that tells them apart may be missing. Equal entries are not always repeated. Where two headings read alike, the source gives them in different places.

Data set [1] addresses T1, HSA (Homo sapiens, UniProt P02768). The experiment in a line: Isothermal titration calorimetry of HSA titrated into SO3SQ. It is filed as binding. Here is the method: ITC measurements were carried out in triplicate on a Malvern VP-ITC. Uncertainties are provided as the standard error of the mean. The solvent was either buffer alone (25 mM sodium phosphate, pH 6.5) or buffer plus 40 mM CG 1:1. HSA was dialyzed into the appropriate buffer, and solid SO3SQ was dissolved in dialysis buffer to ensure a close buffer match. This was necessary in order to prevent strong heats of dilution that are often observed when ILs are titrated in separately. Both HSA and dye solutions were degassed for 10 min before experiments. A typical experiment contained 60 μM HSA in the syringe and 60 μM dye in the calorimetry cell. A total of 28 injections were typically used, each 10 μL in volume, and 10 min of equilibration time was allowed to occur between injections. Measurements were performed at 25° C. Because injection heats and corresponding signal-to-noise ratios were small, manual baseline fitting was performed using Origin software. Since K and N cannot be determined using this ratio of HSA and dye in the presence of CG 1:1, only the enthalpy is accessible from these measurements. The enthalpy for each ITC experiment was reported as the average enthalpy of the first 10 useable injections, which were all similar. […] For reverse titrations, performed without CG 1:1, N, K, and ΔH were fit using CHASM, and the heat of the final injection was used as the baseline. The number of binding sites per HSA molecule was reported as the inverse value of N from fitting, as is typical for reverse titrations. Finally, titrations were also performed where SO3SQ or HSA was systematically removed, one at a time, in the presence and absence of CG 1:1, to determine whether dilution heats were contributing to the measured enthalpy. In all cases, dilution heats were small, less than 10% of the observed enthalpy, and no further corrections were made.

Data set [2] concerns the target T1, HSA. The experiment in a line: Circular dichroism spectroscopy of HSA. The settings on record: 1 mg/mL HSA; 10 μM SO3SQ, with or without 160 mM CG (1:1). As to the method: CD experiments to determine the impact the 1:1 SO3SQ and CG 1:1 may have on HSA and DNA were performed on a Jasco J-1500 CD spectrophotometer. The measurements were performed using a Jasco Spectrosil 1 mm path length cuvette. Samples containing HSA were prepared at 1 mg/mL in either water, 10 μM SO3SQ in water, and 10 μM SO3SQ in water with 1:1 160 mM CG 1:1 added. The protein scans were conducted at a 200-260 nm range. For measurements involving DNA, bacterial plasmid DNA was used, and the DNA concentration was maintained at 12 nM across all samples due to high instrument sensitivity. CG 1:1 was added at 2.5% v/v to achieve a 160 mM concentration. A solution of 9.14 μM SO3SQ in water was made and added to DNA solutions in 5 μL increments. These scans were completed over a 200-350 nm range.

The next data set in a line: Aqueous solubility. It counts as physicochemical. The settings on record: water.
Data set [3] has as its target T2, human serum albumin (HSA) (Homo sapiens, UniProt P02768). The settings on record: for free energy of binding: calculated from KA.
The conditions of data set [4]: in the presence of fetal bovine serum; cited from earlier work.
The target in data set [5] is T2, human serum albumin (HSA). The settings on record: dissolved in human serum albumin (HSA); cited from earlier work.
In data set [6] the target is T1, HSA. As to the kind of experiment: Dynamic light scattering size and zeta potential of HSA systems. The settings on record: 0.1 mg/mL HSA in 10 μM SO3SQ, no IL.
The nature of data set [7]: Conductivity measurements of 160 mM solutions. It counts as physicochemical. As to the method: Conductivity was measured using a Thermo Scientific Orion Star […] conductivity meter using a DuraProbe 4-electrode conductivity cell. […] The clean probe was introduced into each solution to record the conductivity. The conductivity was measured in triplicate for each of the solutions.

For data set [8] the following is noted: 10 μM dye; IL scanned 0-240 mM or additive at 160 mM.
[9] abbreviates: absence of CG 1:1, reverse titration, 25° C.

T2 sequence (P02768 25-609): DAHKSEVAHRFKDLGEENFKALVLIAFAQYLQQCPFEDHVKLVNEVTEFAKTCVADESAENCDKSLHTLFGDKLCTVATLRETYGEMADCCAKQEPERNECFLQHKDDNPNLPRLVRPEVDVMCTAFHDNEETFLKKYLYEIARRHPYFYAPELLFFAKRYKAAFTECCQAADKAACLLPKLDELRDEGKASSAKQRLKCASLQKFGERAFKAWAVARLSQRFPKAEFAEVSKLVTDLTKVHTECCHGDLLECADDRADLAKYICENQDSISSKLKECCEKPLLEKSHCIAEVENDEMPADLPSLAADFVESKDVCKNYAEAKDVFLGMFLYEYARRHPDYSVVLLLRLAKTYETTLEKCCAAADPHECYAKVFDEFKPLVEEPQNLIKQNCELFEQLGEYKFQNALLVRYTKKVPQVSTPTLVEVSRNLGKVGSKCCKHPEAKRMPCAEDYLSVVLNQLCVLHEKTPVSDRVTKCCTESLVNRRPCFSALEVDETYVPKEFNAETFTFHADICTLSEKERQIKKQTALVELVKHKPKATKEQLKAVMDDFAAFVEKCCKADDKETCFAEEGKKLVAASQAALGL
T1 sequence (P02768 25-609): as above

As for `CC1=C(c2ccc(OCCCCS(=O)(=O)O)cc2)/C(=C2/C(=O)C(c3c(-c4ccc(OCCCCS(=O)(=O)[O-])cc4)c(C)c4ccccn34)C2O)[n+]2ccccc21` (stereo not drawn) [SO3SQ], on HSA [1] (setting [9]), the K result is “(1.8±0.4)×10^6”; the “N (number of binding sites per HSA molecule)” value is listed as 11.5±0.4; the “heat of binding, ΔH” value is -75.3 ± 8.4 kJ/mol; the “ΔG°” value was -35.6 ± 0.544 kJ/mol. The “enthalpy of binding between HSA and SO3SQ, ΔH” value at HSA [1] (buffer containing 40 mM ionic liquid, 25 mM sodium phosphate pH 6.5, 25° C.) was 25.5 ± 0.84 kJ/mol. In addition, the “effect on the secondary structure of HSA” value at HSA [2] is listed as “increase in the alpha helical content”. The same molecule came in with a solubility in “Aqueous solubility” of roughly 60 µM (≈ 47.9 µg/mL). In addition, the “apparent association constant KA,app of HSA in SO3SQ” value in data set [3] (10 μM SO3SQ, no IL) is 3.2×10^5 and 2.0×10^5. Besides, the “free energy of binding” value in data set [3] (system containing just the dye) is -31 kJ/mol. The “free energy of binding” value in [3] (system containing the dye and IL) was -33.5 kJ/mol. Also, in data set [4], the “fluorescence quantum yield ΦF” value is on record as 58%. In addition, the “fluorescence quantum yield ΦF” value in data set [5] is 61.1%. At HSA [6], the “average charge (zeta potential)” value is −20±5 mV and the average size is recorded as 150±20 nm.

For the molecule `[Cl-].[Na+]` [NaCl], in [7], the “Conductivity, Mean ± SD” value is listed as 20.4 ± 0.2 μS/cm; the “Conductivity, Replicate 1” value worked out at 20.2 μS/cm; the “Conductivity, Replicate 2” value is listed as 20.6 μS/cm; the “Conductivity, Replicate 3” value was found to be 20.3 μS/cm. Also, in data set [7], the average conductance came to 20.4±0.2 mS/cm and the “conductance relative to that of the IL” value worked out at 100 ×.

Take `O=C(O)CO` [glycolic acid]: in data set [8], the “effect on the dye's fluorescence in the presence of blood” value is “little impact”.
